Measurements as given in ChEMBL document CHEMBL3885881, “DrugMatrix”.

Species: Rattus norvegicus
Test: DrugMatrix - Regimen: Daily Repeat
Assay type: toxicity, organism-based, Sprague-Dawley
Set-up: regimen Daily Repeat, gender Male, age 6-8 weeks
Settings: in vivo, po, route oral GAVAGE, […]; for ABSOLUTE BASOPHIL / ABSOLUTE EOSINOPHIL / ABSOLUTE LYMPHOCYTE / ABSOLUTE MONOCYTE / ABSOLUTE SEGMENTED NEUTROPHIL / BASOPHIL / EOSINOPHIL / ERYTHROCYTE COUNT / HEMATOCRIT / HEMOGLOBIN / LEUKOCYTE COUNT / LYMPHOCYTE / MEAN CORPUSCULAR HEMOGLOBIN / MEAN CORPUSCULAR HEMOGLOBIN CONCENTRATION / MEAN CORPUSCULAR VOLUME / MONOCYTE / NEUTROPHIL / NUCLEATED RED BLOOD CELLS / PLATELET COUNT: tissue Blood; for ALANINE AMINOTRANSFERASE / ALBUMIN / ALKALINE PHOSPHATASE / ASPARTATE AMINOTRANSFERASE / BLOOD UREA NITROGEN / CARBON DIOXIDE / CHLORIDE / CHOLESTEROL / CREATINE PHOSPHOKINASE / CREATININE / GLUCOSE / LACTATE DEHYDROGENASE / LIPASE / PHOSPHORUS / POTASSIUM / SODIUM / TOTAL BILIRUBIN / TOTAL PROTEIN / URIC ACID: tissue Plasma
[1] = 25 mg/kg, 120 h, dose level Low, time 5 day
[2] = 800 mg/kg, 72 h, dose level High, time 3 day
[3] = 800 mg/kg, 120 h, dose level High, time 5 day

CC(C)(C)NC(=O)[C@H]1CC[C@H]2[C@@H]3CC[C@H]4NC(=O)C=C[C@]4(C)[C@H]3CC[C@]12C [FINASTERIDE]
ABSOLUTE BASOPHIL [1]: 0 CELLS/uL | ABSOLUTE EOSINOPHIL [1]: 34.67 CELLS/uL | ABSOLUTE LYMPHOCYTE [1]: 7140 CELLS/uL | ABSOLUTE MONOCYTE [1]: 141.33 CELLS/uL | ABSOLUTE SEGMENTED NEUTROPHIL [1]: 817.33 CELLS/uL | BASOPHIL [1]: 0% | EOSINOPHIL [1]: 0.67% | ERYTHROCYTE COUNT [1]: 5.11 x10E6/uL | HEMATOCRIT [1]: 33.07% | HEMOGLOBIN [1]: 13.03 G/DL | LEUKOCYTE COUNT [1]: 8.13 x10E3/uL | LYMPHOCYTE [1]: 87.67% | MEAN CORPUSCULAR HEMOGLOBIN [1]: 25.53 pg | MEAN CORPUSCULAR HEMOGLOBIN CONCENTRATION [1]: 39.4 G/DL | MEAN CORPUSCULAR VOLUME [1]: 64.77 fL | MONOCYTE [1]: 1.67% | NEUTROPHIL [1]: 10% | NUCLEATED RED BLOOD CELLS [1]: 0 /100WBC | PLATELET COUNT [1]: 1248.33 x10E3/uL | ALANINE AMINOTRANSFERASE [1]: 61 u/L | ALBUMIN [1]: 4.23 G/DL | ALKALINE PHOSPHATASE [1]: 355.67 u/L | ASPARTATE AMINOTRANSFERASE [1]: 74.67 u/L | BLOOD UREA NITROGEN [1]: 11.67 mg/dL | CARBON DIOXIDE [1]: 32.33 mmol/L | CHLORIDE [1]: 103 MEQ/L | CHOLESTEROL [1]: 87.33 mg/dL | CREATINE PHOSPHOKINASE [1]: 247.33 u/L | CREATININE [1]: 0.43 mg/dL | GLUCOSE [1]: 152 mg/dL | LACTATE DEHYDROGENASE [1]: 82.33 u/L | LIPASE [1]: 11 u/L | PHOSPHORUS [1]: 11.7 mg/dL | POTASSIUM [1]: 6.04 MEQ/L | SODIUM [1]: 146.03 MEQ/L | TOTAL BILIRUBIN [1]: 0.17 mg/dL | TOTAL PROTEIN [1]: 5.93 G/DL | URIC ACID [1]: 0.8 mg/dL | ABSOLUTE BASOPHIL [2]: 0 CELLS/uL | ABSOLUTE EOSINOPHIL [2]: 0 CELLS/uL | ABSOLUTE LYMPHOCYTE [2]: 7333 CELLS/uL | ABSOLUTE MONOCYTE [2]: 111.33 CELLS/uL | ABSOLUTE SEGMENTED NEUTROPHIL [2]: 889 CELLS/uL | BASOPHIL [2]: 0% | EOSINOPHIL [2]: 0% | ERYTHROCYTE COUNT [2]: 5.15 x10E6/uL | HEMATOCRIT [2]: 31.93% | HEMOGLOBIN [2]: 12.77 G/DL | LEUKOCYTE COUNT [2]: 8.33 x10E3/uL | LYMPHOCYTE [2]: 88.33% | MEAN CORPUSCULAR HEMOGLOBIN [2]: 24.83 pg | MEAN CORPUSCULAR HEMOGLOBIN CONCENTRATION [2]: 40 G/DL | MEAN CORPUSCULAR VOLUME [2]: 62.17 fL | MONOCYTE [2]: 1.33% | NEUTROPHIL [2]: 10.33% | NUCLEATED RED BLOOD CELLS [2]: 0 /100WBC | PLATELET COUNT [2]: 974.67 x10E3/uL | ALANINE AMINOTRANSFERASE [2]: 103.67 u/L | ALBUMIN [2]: 3.93 G/DL | ALKALINE PHOSPHATASE [2]: 409.67 u/L | ASPARTATE AMINOTRANSFERASE [2]: 102.67 u/L | BLOOD UREA NITROGEN [2]: 11 mg/dL | CARBON DIOXIDE [2]: 26 mmol/L | CHLORIDE [2]: 102.33 MEQ/L | CHOLESTEROL [2]: 70.33 mg/dL | CREATINE PHOSPHOKINASE [2]: 348.33 u/L | CREATININE [2]: 0.1 mg/dL | GLUCOSE [2]: 149 mg/dL | LACTATE DEHYDROGENASE [2]: 104.67 u/L | LIPASE [2]: 10.67 u/L | PHOSPHORUS [2]: 11.3 mg/dL | POTASSIUM [2]: 5.02 MEQ/L | SODIUM [2]: 144 MEQ/L | TOTAL BILIRUBIN [2]: 0.1 mg/dL | TOTAL PROTEIN [2]: 5.37 G/DL | URIC ACID [2]: 0.87 mg/dL | ABSOLUTE BASOPHIL [3]: 0 CELLS/uL | ABSOLUTE EOSINOPHIL [3]: 85.67 CELLS/uL | ABSOLUTE LYMPHOCYTE [3]: 6528 CELLS/uL | ABSOLUTE MONOCYTE [3]: 164.33 CELLS/uL | ABSOLUTE SEGMENTED NEUTROPHIL [3]: 922 CELLS/uL | BASOPHIL [3]: 0% | EOSINOPHIL [3]: 1% | ERYTHROCYTE COUNT [3]: 5.25 x10E6/uL | HEMATOCRIT [3]: 33.4% | HEMOGLOBIN [3]: 12.97 G/DL | LEUKOCYTE COUNT [3]: 7.7 x10E3/uL | LYMPHOCYTE [3]: 85% | MEAN CORPUSCULAR HEMOGLOBIN [3]: 24.7 pg | MEAN CORPUSCULAR HEMOGLOBIN CONCENTRATION [3]: 38.83 G/DL | MEAN CORPUSCULAR VOLUME [3]: 63.67 fL | MONOCYTE [3]: 2% | NEUTROPHIL [3]: 12% | NUCLEATED RED BLOOD CELLS [3]: 0 /100WBC | PLATELET COUNT [3]: 1238.33 x10E3/uL | ALANINE AMINOTRANSFERASE [3]: 55.33 u/L | ALBUMIN [3]: 4.33 G/DL | ALKALINE PHOSPHATASE [3]: 297 u/L | ASPARTATE AMINOTRANSFERASE [3]: 76.67 u/L | BLOOD UREA NITROGEN [3]: 13.67 mg/dL | CARBON DIOXIDE [3]: 32.33 mmol/L | CHLORIDE [3]: 103 MEQ/L | CHOLESTEROL [3]: 66.33 mg/dL | CREATINE PHOSPHOKINASE [3]: 232.33 u/L | CREATININE [3]: 0.12 mg/dL | GLUCOSE [3]: 157.67 mg/dL | LACTATE DEHYDROGENASE [3]: 64.33 u/L | LIPASE [3]: 10.33 u/L | PHOSPHORUS [3]: 11.1 mg/dL | POTASSIUM [3]: 5.99 MEQ/L | SODIUM [3]: 147.03 MEQ/L | TOTAL BILIRUBIN [3]: 0.1 mg/dL | TOTAL PROTEIN [3]: 6.07 G/DL | URIC ACID [3]: 0.5 mg/dL
